Tested on: GNS166 cells
Assay: Microarray whole-transcriptome gene expression analysis
Type: cell-based, human
Description: Whole-transcriptome analysis was performed from 300 ng of RNA using HuGene-2_0-st-v1 expression array (Affymetrix), which covers 48,226 transcripts. Raw data were first checked for quality purposes through the Affymetrix® Expression Console™ Software v1.4.1 and TAC software v4.0. Then, data were normalized using the Robust Multi-array Average (RMA) and analyzed by Limma tool. Probesets with FDR-corrected p-values smaller than 0.05 were selected. Functional enrichment on Gene Ontology (GO) biological processes was performed on a smaller subset of the differentially expressed genes (corrected p-value < 0.001) by means of Broad Institute GSEA. […] The data that support this study have been deposited in NCBI´s Gene Expression Omnibus and are accessible through GEO series accession number GSE143887.

[1] = sheet DMSO-SAHA_DOWN, microarray

## O=C(CCCCCCC(=O)Nc1ccccc1)NO [SAHA, Suberoylanilide hydroxamic acid]
[1]
  logFC TTC7B (transcript TC1400009967.hg.1): -1.063
  logFC TTC28 (transcript TC2200008356.hg.1): -1.091
  logFC TXNDC15 (transcript TC0500008705.hg.1): -1.511
  logFC USE1 (transcript TC1900007313.hg.1): -1.0842
  logFC VCAN (transcript TC0500007972.hg.1): -1.305
  logFC YAP1 (transcript TC1100008904.hg.1): -1.463
  logFC ZDHHC4 (transcript TC0700006649.hg.1): -0.9579
  logFC ZNF43 (transcript TC1900010163.hg.1): -0.8461
  logFC ZNF107 (transcript TC0700013370.hg.1): -1.056
  logFC ZNF805 (transcript TC1900008988.hg.1): -0.8747
  logFC geneSymbol NA (transcript 23064083): -1.061
  logFC geneSymbol NA (transcript 23066345): -1.581
  logFC geneSymbol NA (transcript 23066351): -1.258
  logFC geneSymbol NA (transcript 23066370): -1.256
  logFC geneSymbol NA (transcript 23066378): -1.258
  logFC geneSymbol NA (transcript 23075414): -1.568
  logFC geneSymbol NA (transcript 23075613): -0.9478
  logFC geneSymbol NA (transcript 23075631): -0.8653
  logFC geneSymbol NA (transcript 23075715): -0.9535
  logFC geneSymbol NA (transcript 23075786): -0.9478
  logFC geneSymbol NA (transcript 23075802): -0.9222
  logFC geneSymbol NA (transcript 23075888): -0.8842
  logFC geneSymbol NA (transcript 23075961): -0.9103
  logFC geneSymbol NA (transcript 23076100): -0.9321
  logFC geneSymbol NA (transcript 23076182): -0.9773
  logFC geneSymbol NA (transcript 23076263): -0.9293
  logFC geneSymbol NA (transcript 23076348): -0.9199
  logFC geneSymbol NA (transcript 23076424): -0.8654
  logFC geneSymbol NA (transcript 23076493): -0.9827
  logFC geneSymbol NA (transcript HTA2-pos-3670232_st): -0.8727
  logFC geneSymbol NA (transcript HTA2-pos-3670240_st): -1.133
  logFC geneSymbol NA (transcript HTA2-pos-PSR05023592.hg.1): -0.8946
  logFC geneSymbol NA (transcript HTA2-pos-PSR05035203.hg.1): -1.027
  logFC geneSymbol NA (transcript HTA2-pos-PSR17008061.hg.1): -0.9289
  logFC geneSymbol NA (transcript HTA2-pos-PSR17008062.hg.1): -0.8972
  logFC geneSymbol NA (transcript HTA2-pos-PSR17008080.hg.1): -0.8914
  logFC geneSymbol NA (transcript HTA2-pos-PSR17008100.hg.1): -0.9888
  logFC geneSymbol NA (transcript HTA2-pos-PSR17013956.hg.1): -1.322
  logFC geneSymbol NA (transcript HTA2-pos-PSR19006615.hg.1): -0.8048
Transcript 23071521, DMSO vs 5 µM SAHA, upregulated genes
  logFC transcript 23071521 (geneSymbol NA): 0.9492
Transcript 23074028, DMSO vs 5 µM SAHA, upregulated genes
  logFC transcript 23074028 (geneSymbol NA): 1.15
Transcript TC0X00006704.hg.1, DMSO vs 5 µM SAHA, upregulated genes
  logFC REPS2: 2.016
Transcript TC0X00006789.hg.1, DMSO vs 5 µM SAHA, upregulated genes
  logFC FAM3C2: 1.058
Transcript TC0X00007935.hg.1, DMSO vs 5 µM SAHA, upregulated genes
  logFC TMEM35: 1.065
Transcript TC0X00008492.hg.1, DMSO vs 5 µM SAHA, upregulated genes
  logFC SMIM10: 1.0804
Transcript TC0X00008596.hg.1, DMSO vs 5 µM SAHA, upregulated genes
  logFC CDR1: 2.1035
Transcript TC0X00009107.hg.1, DMSO vs 5 µM SAHA, upregulated genes
  logFC GEMIN8: 1.085
Transcript TC0X00009339.hg.1, DMSO vs 5 µM SAHA, upregulated genes
  logFC TAB3: 0.8188
Transcript TC0X00010670.hg.1, DMSO vs 5 µM SAHA, upregulated genes
  logFC TMEM255A: 1.002
Transcript TC0100010518.hg.1, DMSO vs 5 µM SAHA, upregulated genes
  logFC DCAF6: 0.8028
Transcript TC0100010863.hg.1, DMSO vs 5 µM SAHA, upregulated genes
  logFC LAMC1: 1.035
Transcript TC0100011520.hg.1, DMSO vs 5 µM SAHA, upregulated genes
  logFC PPP2R5A: 0.853
Transcript TC0100011552.hg.1, DMSO vs 5 µM SAHA, upregulated genes
  logFC VASH2: 1.211
Transcript TC0100015049.hg.1, DMSO vs 5 µM SAHA, upregulated genes
  logFC FRRS1: 1.197
Transcript TC0100017957.hg.1, DMSO vs 5 µM SAHA, upregulated genes
  logFC PLD5: 1.018
Transcript TC0100018235.hg.1, DMSO vs 5 µM SAHA, upregulated genes
  logFC FPGT-TNNI3K: 1.058
Transcript TC0200007535.hg.1, DMSO vs 5 µM SAHA, upregulated genes
  logFC PPP1R21: 1.2457
Transcript TC0200009596.hg.1, DMSO vs 5 µM SAHA, upregulated genes
  logFC ACVR2A: 1.001
Transcript TC0200010907.hg.1, DMSO vs 5 µM SAHA, upregulated genes
  logFC ACSL3: 1.082
Transcript TC0200012489.hg.1, DMSO vs 5 µM SAHA, upregulated genes
  logFC PIGF: 1.027
Transcript TC0200014597.hg.1, DMSO vs 5 µM SAHA, upregulated genes
  logFC RND3: 0.9455
Transcript TC0200014694.hg.1, DMSO vs 5 µM SAHA, upregulated genes
  logFC ACVR1C: 1.493
Transcript TC0300006961.hg.1, DMSO vs 5 µM SAHA, upregulated genes
  logFC CMTM8: 0.9182
Transcript TC0300009147.hg.1, DMSO vs 5 µM SAHA, upregulated genes
  logFC RNF13: 1.125
Transcript TC0300009229.hg.1, DMSO vs 5 µM SAHA, upregulated genes
  logFC RAP2B: 0.867
Transcript TC0300009282.hg.1, DMSO vs 5 µM SAHA, upregulated genes
  logFC TIPARP: 0.8784
Transcript TC0300009353.hg.1, DMSO vs 5 µM SAHA, upregulated genes
  logFC PPM1L: 1.659
Transcript TC0300009706.hg.1, DMSO vs 5 µM SAHA, upregulated genes
  logFC POLR2H: 0.9753
Transcript TC0300012686.hg.1, DMSO vs 5 µM SAHA, upregulated genes
  logFC SLC9A9: 2.129
Transcript TC0300013108.hg.1, DMSO vs 5 µM SAHA, upregulated genes
  logFC TNIK: 1.27
Transcript TC0300013950.hg.1, DMSO vs 5 µM SAHA, upregulated genes
  logFC EFHB: 1.411
Transcript TC0300014083.hg.1, DMSO vs 5 µM SAHA, upregulated genes
  logFC DGKG: 2.595
Transcript TC0400007938.hg.1, DMSO vs 5 µM SAHA, upregulated genes
  logFC BMP2K: 0.9344
Transcript TC0400008331.hg.1, DMSO vs 5 µM SAHA, upregulated genes
  logFC NPNT: 1.698
Transcript TC0400008892.hg.1, DMSO vs 5 µM SAHA, upregulated genes
  logFC HHIP: 1.6713
Transcript TC0400009038.hg.1, DMSO vs 5 µM SAHA, upregulated genes
  logFC KIAA0922: 1.219
Transcript TC0400009132.hg.1, DMSO vs 5 µM SAHA, upregulated genes
  logFC ETFDH: 0.9226
Transcript TC0400009284.hg.1, DMSO vs 5 µM SAHA, upregulated genes
  logFC CLCN3: 0.8527
Transcript TC0400011208.hg.1, DMSO vs 5 µM SAHA, upregulated genes
  logFC FAM175A: 1.331
Transcript TC0400011538.hg.1, DMSO vs 5 µM SAHA, upregulated genes
  logFC PAPSS1: 0.9468
Transcript TC0400011563.hg.1, DMSO vs 5 µM SAHA, upregulated genes
  logFC ETNPPL: 1.856
Transcript TC0400011712.hg.1, DMSO vs 5 µM SAHA, upregulated genes
  logFC PDE5A: 1.355
Transcript TC0400012856.hg.1, DMSO vs 5 µM SAHA, upregulated genes
  logFC RAPGEF2: 1.1527
Transcript TC0500006816.hg.1, DMSO vs 5 µM SAHA, upregulated genes
  logFC FAM105A: 1.369
Transcript TC0500009123.hg.1, DMSO vs 5 µM SAHA, upregulated genes
  logFC SLC36A1: 0.9929
Transcript TC0500010731.hg.1, DMSO vs 5 µM SAHA, upregulated genes
  logFC ARL15: 2.128
Transcript TC0500011497.hg.1, DMSO vs 5 µM SAHA, upregulated genes
  logFC GLRX: 0.987
Transcript TC0500012160.hg.1, DMSO vs 5 µM SAHA, upregulated genes
  logFC NME5: 1.606
Transcript TC0500012294.hg.1, DMSO vs 5 µM SAHA, upregulated genes
  logFC PCDH1: 1.432
